Measured values as given in patent EP1914304A1 (priority 1998, dated 1999).

Assays:
[1] = biological target: gmk/TK-trunc fusion protein (murine guanylate kinase fused to wild-type HSV-1 TK without its first nine amino acids; pET23d:gmk/TK-trunc) (UniProt P0DTH5+Q64520); details: Table X; purified from E. coli
[2] = biological target: gmk/TK-fl fusion protein (murine guanylate kinase fused to the entire wild-type HSV-1 TK; pET23d:gmk/TK-fl) (UniProt P0DTH5+Q64520); details: Table X; purified from E. coli
[3] = tested on: ts13 BHK tk- cells transfected with pCMV:132 (HSV-1 TK mutant 132); assay: Cell killing by GCV and ACV, Alamar Blue viability (ED50); format: cell-based, baby hamster; details: Mesocricetus auratus, 96 h; effective dose for 50% cell killing, after 4 days on nucleoside analog, pooled G418 resistant clones
Method: (§1) Briefly, the cell transfections are performed as follows. Approximately 5 x 10^5 ts13 BHK tk cells (ATCC CRL-1632) are plated on 100mm dishes in DMEM + 10% calf serum. For each transfection 1 µg of pSV2neo and 10µg of a pCMV construct (pCMV, pCMV:TK-wrong (HSVTK in the wrong orientation relative to the promoter), pCMV:HSVTK, pCMV:30, pCMV:75 or pCMV:132 DNA) in 0.25M CaCl2 are mixed with 0.5ml 2 x BBS (see Chen and Okayama) and preincubated at 37°C at 2.5% CO2 for […]. The CaCl2/DNA mix is added dropwise to the plates and mixed in well. After a 24 hour incubation at 37°C in a 2.5% CO2 wet incubator, the cells are rinsed twice with Dulbecco PBS minus Ca/Mg and fed with fresh DMEM + 10% calf serum. Plates are incubated at 37°C with 6% CO2. After 72 hours post-transfection the cells are split 1:3 and plated in DMEM + 10% calf serum containing G418 at 600µg/ml.
(§2) The cells are selected on G418 (600µg/ml) at 37°C for 17 days. […]. Approximately 30-40 clones are selected in this manner for each transfected DNA containing a tk gene in the correct orientation. The pCMV and pCMV:TK-wrong transfections yielded between 130 and 140 clones each. G418 resistant clones are harvested, pooled and plated at a density of 2000 cells/well in 100µl DMEM + 10% calf serum and 200µg/ml G418 + 6% CO2 in 96 well microtiter plates. […]. After three days in the presence of the nucleoside analog, Alamar Blue is added and 6 hours later the plates are scanned using a fluorometer as according to the manufacturer's protocol (Alamar Biosciences, Inc., Sacramento, CA). The plates are incubated a further 24 hours at 37°C and scanned again.
(§3) Determination of the fluorescence level of cells incubated in the presence of Alamar Blue directly relates to cell viability.

[4] = tested on: ts13 BHK tk- cells transfected with pCMV:30 (HSV-1 TK mutant 30); assay: as above; format: cell-based, baby hamster; details: Mesocricetus auratus, 96 h; effective dose for 50% cell killing, after 4 days on nucleoside analog, pooled G418 resistant clones
Method: as §1, §2, §3

[5] = tested on: ts13 BHK tk- cells transfected with pCMV:75 (HSV-1 TK mutant 75); assay: as above; format: cell-based, baby hamster; details: Mesocricetus auratus, 96 h; effective dose for 50% cell killing, after 4 days on nucleoside analog, pooled G418 resistant clones
Method: as §1, §2, §3

[6] = tested on: ts13 BHK tk- cells transfected with pCMV:HSVTK (wild-type HSV-1 TK); assay: as above; format: cell-based, baby hamster; details: Mesocricetus auratus, 96 h; effective dose for 50% cell killing, after 4 days on nucleoside analog, pooled G418 resistant clones
Method: as §1, §2, §3

[7] = tested on: Rat C6 cells expressing TK mutant 30; assay: Rat C6 kill curves with GCV and ACV; format: cell-based; details: Table VIII
Text: (§4) The seven mutants were subcloned into the mammalian expression vector, pREP8D7:dualGFP. This vector contains a constitutive metallothionin promoter, which drives the expression of green flourescent protein (GFP), and an RSV LTR promoter, which stimulated expression of the TK mutants. The vector also contains a histidinol resistance gene for selection of transformants. Purified vector DNA of these constructs was used to transfect BHK tk- cells by electroporation. The transfectants were selected by resistance to histidinol and sorted using FACS analysis for GFP expression. Pools of transfectants were then assayed for sensitivity to GCV or ACV over a range of prodrug doses. […] Table VIII illustrates the IC50 values from Rat C6 kill curves with the SR11, SR26, and SR39 mutants.

[8] = tested on: Rat C6 cells expressing TK mutant 411; assay: Rat C6 kill curves with GCV and ACV; format: cell-based; details: Table VIII
Text: as §4

[9] = tested on: Rat C6 cells expressing TK mutant 75; assay: Rat C6 kill curves with GCV and ACV; format: cell-based; details: Table VIII
Text: as §4

[10] = tested on: Rat C6 cells expressing TK mutant SR11; assay: Rat C6 kill curves with GCV and ACV; format: cell-based; details: Table VIII
Text: as §4

[11] = tested on: Rat C6 cells expressing TK mutant SR26; assay: Rat C6 kill curves with GCV and ACV; format: cell-based; details: Table VIII
Text: as §4

[12] = tested on: Rat C6 cells expressing TK mutant SR39; assay: Rat C6 kill curves with GCV and ACV; format: cell-based; details: Table VIII
Text: as §4

[13] = tested on: Rat C6 cells expressing wild-type TK; assay: Rat C6 kill curves with GCV and ACV; format: cell-based; details: Table VIII
Text: as §4

[14] = tested on: rat C6 cells expressing gmk/TK-trunc fusion protein; assay: Ganciclovir dose response curve, fusion protein against wild-type TK; format: cell-based; details: Figure 31; fusion protein being the superior one
[15] = tested on: rat C6 glioblastoma cells transfected with TK mutant 30, subcutaneous tumor; assay: Mouse xenograft tumor model with prodrug treatment; format: in vivo, Nude mice; details: prodrug twice a day for 5 days from day 5; Figures 32-34
Method: (§5) Rat C6 glioblastoma cells were transfected with the stable expression vector pREP8D7:dualGFP as described above containing various TK mutants. […] Experiments were carried out to establish prodrug dosing levels for tumor ablation and efficacy of therapy. Nude mice (JAX Labs, Bar Harbor, Maine) were injected subcutaneously with 0.5 x10^6 transfected rat C6 cells. After 5 days, prodrugs (ACV and GCV) were administered twice a day for a further 5 days. Prodrug was given at either of two concentrations (shown as mg/kg). During this period and for an additional 6 days, tumor size was monitored by caliper measurement every other day. At the end of the period, mice were sacrificed and the tumors excised and weighed.

[16] = tested on: rat C6 glioblastoma cells transfected with TK mutant SR39, subcutaneous tumor; assay: Mouse xenograft tumor model with prodrug treatment; format: in vivo, Nude mice; details: prodrug twice a day for 5 days from day 5; Figures 32-34
Method: as §5

[17] = biological target: T1, HSV-1 thymidine kinase mutant 75 (LIF-ALL library, codons 159-161 and 168-170 randomized; pET23d:75) (Human herpesvirus 1, UniProt P0DTH5); details: Table V
T1 sequence (P0DTH5 1-376): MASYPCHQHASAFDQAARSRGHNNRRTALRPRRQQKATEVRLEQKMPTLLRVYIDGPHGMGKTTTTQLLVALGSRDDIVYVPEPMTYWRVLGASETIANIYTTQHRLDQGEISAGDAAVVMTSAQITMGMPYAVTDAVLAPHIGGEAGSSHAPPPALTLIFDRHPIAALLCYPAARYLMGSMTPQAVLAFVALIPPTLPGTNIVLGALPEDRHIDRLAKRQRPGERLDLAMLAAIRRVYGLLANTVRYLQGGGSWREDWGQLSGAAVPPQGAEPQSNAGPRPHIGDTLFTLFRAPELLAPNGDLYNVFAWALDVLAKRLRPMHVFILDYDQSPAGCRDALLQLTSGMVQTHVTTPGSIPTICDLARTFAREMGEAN
Method: The culture is incubated at 37°C overnight. The following day the 5ml culture is used to inoculate 1L M9ZB + cabenicillin at 20µg/ml and the culture allowed to grow at 37°C to OD600 0.1. At that point IPTG is added to 0.4mM and the culture incubated a further 3 hours. The cells are chilled on ice, pelleted by centrifugation and the pellets washed once in cell wash buffer (50mM Tris, pH 7.5, 5mM EDTA, 10% sucrose) prior to freezing the pellets at -70°C. The next day the cells are resuspended in 12ml Buffer 1 (50mM Tris, pH 7.5, 10% sucrose, 2mM DTT, 5mM EDTA, 1mM PMSF) and the volume split into two 13ml Oakridge ultracentrifuge tubes. 1ml Buffer 1 containing 3mg lysozyme is added to each tube and the tubes left on ice for 1 hr. […] The cleared supernatant is then aliquoted and frozen at -70°C.
The 1ml bed volume column is prepared by passing 10ml Buffer 1 followed by 10ml Absorption Buffer (50mM Tris, pH 7.5, 10% sucrose, 2mM DTT, 25mM MgAc2, 10mM ATP) over the column. Two ml of the cleared lysate is mixed with 2 ml of Absorption Buffer and passed through a 0.2µm filter. This mix is passed over the column 3 times. The column is washed with 5ml Absorption buffer three times and the 5ml fractions collected. […] The column is reactivated by loading on 10ml High Salt Buffer (50mM Tris, pH 7.5, 10% sucrose, 2mM DTT, 0.5M KCl) and 10ml 50mM Tris, pH 7.5. The column is stored in 50mM Tris pH 7.5 + 0.004% sodium azide. The extent of purification is monitored by Coomassie stained SDS:PAGE analysis and the concentration of purified protein determined using the BioRad Reagent (Bradford Reagent).
Km and Vmax values are determined from double reciprocal plots and kcat values are calculated using the equation Vmax = kcat [Eo] where [Eo] is the total enzyme concentration. The BioRad reagent was used to determine the total enzyme concentration of purified thymidine kinase enzymes.

Row | Compound | Km [1] | Km [2] | IC50 [3] | IC50 [4] | IC50 [5] | IC50 [6] | IC50 [7] | IC50 [8] | IC50 [9] | IC50 [10] | IC50 [11] | IC50 [12] | IC50 [13] | difference in IC50 between fusion protein and wild-type TK [14] | tumor reduction (tumor diameter, final tumor weight) [15] | tumor reduction (tumor diameter, final tumor weight) [16] | Km ([17]; double reciprocal plots) | kcat ([17]; per active site)
1 | Nc1nc2c(ncn2[C@@H]2O[C@H](COP(=O)(O)O)[C@@H](O)[C@H]2O)c(=O)[nH]1 [GMP] | 95 µM | 146 µM |  |  |  |  |  |  |  |  |  |  |  |  |  |  |  | 
2 | Nc1nc2c(ncn2[C@H]2C[C@H](O)[C@@H](COP(=O)(O)O)O2)c(=O)[nH]1 [dGMP] | 218 µM | 359 µM |  |  |  |  |  |  |  |  |  |  |  |  |  |  |  | 
3 | Nc1nc(O)c2ncn(COC(CO)CO)c2n1 [ganciclovir] |  |  | 18000 nM | 4400 nM | 470 nM | 20000 nM | 10 nM | 100 nM | > 1000 nM | 150 nM | 40 nM | 17 nM | 5000 nM | 100 fold | significant tumor reduction | significant tumor reduction | 10 µM | .050 s⁻¹
